{"source": "patent US20110288042A1", "about": "“STABLE HIGHLY PURE AZACITIDINE AND PREPARATION METHODS THEREFOR” (CHEMAGIS LTD., priority 2007, published 2011)", "key": {"[1]": {"assay": "Solution stability of 5-azacytidine in the HPLC diluent", "format": "physicochemical", "details": "for Area (%) at RRT 1.00 (5-azacytidine) / Area (%) of peak at RRT 0.63 / Area (%) of peak at RRT 2.01 / Area (%) of peak at RRT 2.05 / Total impurities by % area: HPLC diluent, about 1.65 mg/ml", "method": "(§1) The HPLC measurements were performed using a system equipped with an Inertsil C18 column (ODS-2, 5 microns, 250×4.6 mm (ODS-167)). Other parameters of the system were as follows: • Detection: UV detector operated on 242 nm • Column temperature: 20° C. • Run time: 45 minutes • Injection volume: 10 μl • Flow rate: 1.0 ml/minute • Sample set temperature: 5° C. • Sample concentration: about 1.65 mg/ml • Diluent: Mixture of 30% 10 mM ammonium acetate and 70% THF\n(§2) Analyses were performed using the following mobile phase • Mobile Phase (Eluent) A: 10 mM ammonium acetate • Mobile Phase (Eluent) B: 60% 10 mM ammonium acetate, 40% MeOH"}, "[2]": {"details": "cited from earlier work"}, "[3]": {"assay": "Induced degradation of 5-azacytidine in solid state (observation, FT-IR, HPLC)", "format": "physicochemical", "details": "for Area (%) at RRT 1.00 (5-azacytidine) / Area (%) of peak at RRT 0.63 / Area (%) of peak at RRT 2.01 / Area (%) of peak at RRT 2.05 / Total impurities (%): solid", "method": "as §1, §2\nThe sample was placed in a UV chamber and exposed to UV light for 48 hours. • Accelerated conditions [40±2° C./75±5% Relative Humidity (RH)].\nAt the end of the stipulated time period, the physical descriptions of each sample were noted down. Identification tests were performed by FT-IR, and purity checks were performed by HPLC analysis. The protected sample, as defined herein, is the reference storage material used for carrying out the experiments detailed in Tables 7 and 8."}, "[4]": {"details": "accelerated conditions (40 ± 2° C., 75 ± 5% RH), 48 hours"}, "[5]": {"details": "exposure to ambient conditions, visible light 48 hours"}, "[6]": {"details": "exposure to elevated temperature (105° C.), 48 hours"}}, "note": "Where two headings read alike, the source gives them in different places.", "data": [{"compound": "Nc1ncn([C@@H]2O[C@H](CO)[C@@H](O)[C@H]2O)c(=O)n1", "note": "[5-azacytidine, 4-amino-1-β-D-ribofuranosyl-1,3,5-s-triazine-2(1H)-one]", "values": [{"measurement": "Area (%) at RRT 1.00 (5-azacytidine)", "setting": "[1]; 6 hours", "value": 96.00, "unit": "%"}, {"measurement": "Area (%) of peak at RRT 0.63", "setting": "[1]; 6 hours", "value": 2.30, "unit": "%"}, {"measurement": "Area (%) of peak at RRT 2.01", "setting": "[1]; 6 hours", "value": 1.36, "unit": "%"}, {"measurement": "Area (%) of peak at RRT 2.05", "setting": "[1]; 6 hours", "value": 0.24, "unit": "%"}, {"measurement": "Total impurities by % area", "setting": "[1]; 6 hours", "value": 4.00, "unit": "%"}, {"measurement": "Area (%) at RRT 1.00 (5-azacytidine)", "setting": "[1]; 7 hours", "value": 95.85, "unit": "%"}, {"measurement": "Area (%) of peak at RRT 0.63", "setting": "[1]; 7 hours", "value": 2.43, "unit": "%"}, {"measurement": "Area (%) of peak at RRT 2.01", "setting": "[1]; 7 hours", "value": 1.37, "unit": "%"}, {"measurement": "Area (%) of peak at RRT 2.05", "setting": "[1]; 7 hours", "value": 0.23, "unit": "%"}, {"measurement": "Total impurities by % area", "setting": "[1]; 7 hours", "value": 4.15, "unit": "%"}, {"measurement": "Area (%) at RRT 1.00 (5-azacytidine)", "setting": "[1]; 8 hours", "value": 95.74, "unit": "%"}, {"measurement": "Area (%) of peak at RRT 0.63", "setting": "[1]; 8 hours", "value": 2.55, "unit": "%"}, {"measurement": "Area (%) of peak at RRT 2.01", "setting": "[1]; 8 hours", "value": 1.37, "unit": "%"}, {"measurement": "Area (%) of peak at RRT 2.05", "setting": "[1]; 8 hours", "value": 0.24, "unit": "%"}, {"measurement": "Total impurities by % area", "setting": "[1]; 8 hours", "value": 4.26, "unit": "%"}, {"measurement": "Area (%) at RRT 1.00 (5-azacytidine)", "setting": "[1]; 9 hours", "value": 95.63, "unit": "%"}, {"measurement": "Area (%) of peak at RRT 0.63", "setting": "[1]; 9 hours", "value": 2.66, "unit": "%"}, {"measurement": "Area (%) of peak at RRT 2.01", "setting": "[1]; 9 hours", "value": 1.37, "unit": "%"}, {"measurement": "Area (%) of peak at RRT 2.05", "setting": "[1]; 9 hours", "value": 0.24, "unit": "%"}, {"measurement": "Total impurities by % area", "setting": "[1]; 9 hours", "value": 4.37, "unit": "%"}, {"measurement": "Area (%) at RRT 1.00 (5-azacytidine)", "setting": "[1]; 10 hours", "value": 95.50, "unit": "%"}, {"measurement": "Area (%) of peak at RRT 0.63", "setting": "[1]; 10 hours", "value": 2.77, "unit": "%"}, {"measurement": "Area (%) of peak at RRT 2.01", "setting": "[1]; 10 hours", "value": 1.37, "unit": "%"}, {"measurement": "Area (%) of peak at RRT 2.05", "setting": "[1]; 10 hours", "value": 0.24, "unit": "%"}, {"measurement": "Total impurities by % area", "setting": "[1]; 10 hours", "value": 4.50, "unit": "%"}, {"measurement": "Area (%) at RRT 1.00 (5-azacytidine)", "setting": "[1]; 11 hours", "value": 95.40, "unit": "%"}, {"measurement": "Area (%) of peak at RRT 0.63", "setting": "[1]; 11 hours", "value": 2.87, "unit": "%"}, {"measurement": "Area (%) of peak at RRT 2.01", "setting": "[1]; 11 hours", "value": 1.37, "unit": "%"}, {"measurement": "Area (%) of peak at RRT 2.05", "setting": "[1]; 11 hours", "value": 0.24, "unit": "%"}, {"measurement": "Total impurities by % area", "setting": "[1]; 11 hours", "value": 4.60, "unit": "%"}, {"measurement": "Solution stability in HPLC diluent", "setting": "[1]; dissolved in the HPLC diluent", "value": "stable within the average time period needed to complete the HPLC method"}, {"measurement": "Solubility", "setting": "[2]; in 5% Tween 80 in water", "value": "sparingly soluble"}, {"measurement": "Solubility", "setting": "[2]; in 5% dextrose in water", "value": "sparingly soluble"}, {"measurement": "Solubility", "setting": "[2]; in N-methyl-2-pyrrolidone", "value": "sparingly soluble"}, {"measurement": "Solubility", "setting": "[2]; in acetone", "value": "insoluble"}, {"measurement": "Solubility", "setting": "[2]; in dimethylsulfoxide (DMSO)", "value": "soluble"}, {"measurement": "Solubility", "setting": "[2]; in ethanol/water (50/50)", "value": "slightly soluble"}, {"measurement": "Solubility", "setting": "[2]; in ethanol", "value": "insoluble"}, {"measurement": "Solubility", "setting": "[2]; in methyl ethyl ketone", "value": "insoluble"}, {"measurement": "Solubility", "setting": "[2]; in normal saline", "value": "sparingly soluble"}, {"measurement": "Solubility", "setting": "[2]; in polyethylene glycol", "value": "slightly soluble"}, {"measurement": "Solubility", "setting": "[2]; in propylene glycol", "value": "slightly soluble"}, {"measurement": "Solubility", "setting": "[2]; in water saturated octanol", "value": "sparingly soluble"}, {"measurement": "Solubility", "setting": "[2]; in water", "value": "sparingly soluble"}, {"measurement": "FT-IR spectra changes", "setting": "[3]; solid state induced degradation", "value": "did not show any significant changes"}, {"measurement": "Stability in solid state (HPLC analysis)", "setting": "[3]; solid state, Tables 7 and 8", "value": "stable to heat and IJV light"}, {"measurement": "Change in color of the sample", "setting": "[3]; solid state, exposed to an elevated temperature", "value": "slight change in color"}, {"measurement": "Area (%) at RRT 1.00 (5-azacytidine)", "setting": "[3]; [4]", "value": 97.04, "unit": "%"}, {"measurement": "Area (%) of peak at RRT 0.63", "setting": "[3]; [4]", "value": 1.90, "unit": "%"}, {"measurement": "Area (%) of peak at RRT 2.01", "setting": "[3]; [4]", "value": 0.80, "unit": "%"}, {"measurement": "Area (%) of peak at RRT 2.05", "setting": "[3]; [4]", "value": 0.14, "unit": "%"}, {"measurement": "Total impurities (%)", "setting": "[3]; [4]", "value": 2.96, "unit": "%"}, {"measurement": "Area (%) at RRT 1.00 (5-azacytidine)", "setting": "[3]; exposure to UV light, 48 hours", "value": 96.64, "unit": "%"}, {"measurement": "Area (%) of peak at RRT 0.63", "setting": "[3]; exposure to UV light, 48 hours", "value": 1.66, "unit": "%"}, {"measurement": "Area (%) of peak at RRT 2.01", "setting": "[3]; exposure to UV light, 48 hours", "value": 1.35, "unit": "%"}, {"measurement": "Area (%) of peak at RRT 2.05", "setting": "[3]; exposure to UV light, 48 hours", "value": 0.24, "unit": "%"}, {"measurement": "Total impurities (%)", "setting": "[3]; exposure to UV light, 48 hours", "value": 3.36, "unit": "%"}, {"measurement": "Area (%) at RRT 1.00 (5-azacytidine)", "setting": "[3]; [5]", "value": 96.75, "unit": "%"}, {"measurement": "Area (%) of peak at RRT 0.63", "setting": "[3]; [5]", "value": 1.52, "unit": "%"}, {"measurement": "Area (%) of peak at RRT 2.01", "setting": "[3]; [5]", "value": 1.36, "unit": "%"}, {"measurement": "Area (%) of peak at RRT 2.05", "setting": "[3]; [5]", "value": 0.27, "unit": "%"}, {"measurement": "Total impurities (%)", "setting": "[3]; [5]", "value": 3.25, "unit": "%"}, {"measurement": "Area (%) at RRT 1.00 (5-azacytidine)", "setting": "[3]; [6]", "value": 96.61, "unit": "%"}, {"measurement": "Area (%) of peak at RRT 0.63", "setting": "[3]; [6]", "value": 2.00, "unit": "%"}, {"measurement": "Area (%) of peak at RRT 2.01", "setting": "[3]; [6]", "value": 1.01, "unit": "%"}, {"measurement": "Area (%) of peak at RRT 2.05", "setting": "[3]; [6]", "value": 0.17, "unit": "%"}, {"measurement": "Total impurities (%)", "setting": "[3]; [6]", "value": 3.39, "unit": "%"}, {"measurement": "Area (%) at RRT 1.00 (5-azacytidine)", "setting": "[3]; protected sample (storage)", "value": 96.72, "unit": "%"}, {"measurement": "Area (%) of peak at RRT 0.63", "setting": "[3]; protected sample (storage)", "value": 1.55, "unit": "%"}, {"measurement": "Area (%) of peak at RRT 2.01", "setting": "[3]; protected sample (storage)", "value": 1.37, "unit": "%"}, {"measurement": "Area (%) of peak at RRT 2.05", "setting": "[3]; protected sample (storage)", "value": 0.24, "unit": "%"}, {"measurement": "Total impurities (%)", "setting": "[3]; protected sample (storage)", "value": 3.28, "unit": "%"}]}]}
